Test results as given in PubChem BioAssay AID1188 (EPA DSSTox, 2008).
The source made the active and inactive calls.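 Rule for the calls: active = a concentration killing half the fathead minnows in the acute test was determined; inconclusive = some fish died but not half at top dose; inactive = no fish died even at top dose.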

system: Fathead minnow (Pimephales promelas) acute toxicity, lethality; assay: DSSTox (EPAFHM) EPA Fathead Minnow Acute Toxicity
From the text: The EPA Fathead Minnow Acute Toxicity database was generated by the U.S. EPA Mid-Continental Ecology Division (MED) for the purpose of developing an expert system to predict acute toxicity from chemical structure based on mode of action considerations. […] A second valuable aspect of this database, from a QSAR modeling perspective, is the inclusion of general mode-of-action (MOA) classifications of acute toxicity response for individual chemicals derived from study results. MOA assignments are biologically based classifications, allowing definition of chemical similarity based upon biological activity instead of organic chemistry functional class as most commonly employed in QSAR study. MOA classifications should strengthen the scientific basis for construction of individual QSARs. However, it is cautioned that the broad MOA categorizations should not be construed to represent a single molecular mechanism; for example, CNS seizure agents and respiratory inhibitors are known to act through a variety of receptors. The EPA Fathead Minnow database and results have been used by EPA MED to build components of the ASTER prediction system, which incorporates MOA-based QSARs for the prediction of aquatic toxicity of environmental and industrial chemicals. Briefly, MOA classifications for individual chemicals, derived from experiments and provided in the EPA Fathead Minnow database, were used to derive substructural rules for assigning a new chemical to an MOA category based solely on chemical structure. Once a new chemical is assigned to an MOA category on this basis, the logP-based QSAR for that MOA category is applied.
The DSSTox EPAFHM database (available from the DSSTox Source URL) includes information pertaining to organic chemical class assignments (ChemClass_FHM), acute toxicity in fathead minnow (LC50_mg), dose-response assessments (LC50_Ratio, ExcessToxicityIndex), behavioral assessments (FishBehaviorTest), joint toxicity MOA evaluations of mixtures (MOA_MixtureTest), and additional MOA evaluation of fish acute toxicity syndrome (FishAcuteToxSyndrome) in rainbow trout. All of these indicators, to the extent available, were considered in the determination of MOA and, additionally, were used to determine a level of confidence in the MOA assignment for each chemical (MOA_Confidence). […] Activity Score is mapping of LOG10 (1/LC50_mmol) activity values spanning activity range [MIN, MAX] onto Integer 1-100 Activity range, where 100 is highest potency and 1 is lowest. If Activity Outcome is "active": Activity Score = 100 * INTEGER[(log10(1/ LC50_mmol) - MIN)/([…])].

SMILES | outcome | Potency
c1ccc(-c2ccc(-c3ccccc3)o2)cc1 | inactive; moa not determined either due to lack of toxicity at saturation or late test res | 
Oc1ccccc1 |  | 347 µM
O=[N+]([O-])c1ccc(O)cc1C(F)(F)F |  | 44.1 µM
CNC(=O)Oc1ccc(C(C)(C)C)cc1 |  | 48.2 µM
COCCCNCc1cc(OC)c(OC)c(OC)c1 |  | 505 µM
NC(=O)c1ccc(Cl)cc1Cl |  | 503 µM
COc1ccc(C(C)=O)c(O)c1 |  | 418 µM
O[C@@H]1C[C@H]2CC[C@@H]1C2 |  | 2030 µM
CCOC(=O)C(Cc1ccccc1)C(=O)OCC |  | 21.7 µM
CCc1cccc(CC)c1 |  | 30.9 µM
C#CC(O)CCCCC (stereo unspecified) |  | 3.27 µM
N#CCCCCC#N |  | 17900 µM
Nc1ccc(F)cc1C(F)(F)F |  | 165 µM
Nc1ccc([N+](=O)[O-])cc1[N+](=O)[O-] |  | 80.8 µM
C=Cn1c2ccccc2c2ccccc21 |  | 0.0166 µM
Cc1cccc([N+](=O)[O-])c1 |  | 187 µM
CC(=O)CC(=O)c1ccccc1 |  | 6.78 µM
CC(=O)CC(C)=O |  | 1350 µM
CCCO |  | 75700 µM
CCCCCCCO |  | 297 µM
Cc1ccc(Cl)c(Cl)c1 |  | 18.1 µM
O=C(O)c1cccc(C(=O)O)n1 |  | 1930 µM
CCC(C)O (stereo unspecified) |  | 49500 µM
O=Cc1ccccc1 |  | 93 µM
C=CC(Cl)CCl (stereo unspecified) |  | 65.4 µM
C1OCOCO1 |  | 66100 µM

SMILES | outcome | Potency
Clc1nc(Cl)c(Cl)c(Cl)c1Cl |  | 1.87 µM
CCc1c(Br)c(Br)c(Br)c(Br)c1Br | inactive; moa not determined either due to lack of toxicity at saturation or late test res | 
NC(=O)c1ccccc1O |  | 736 µM
CC(C)(O)C(F)(F)C(F)F |  | 3640 µM
COc1ccc(C(C)=O)c(OC)c1OC |  | 947 µM
CC(C)=C1C=C2CC[C@@H]3[C@](C)(CCC[C@@]3(C)C(=O)O)[C@H]2CC1 |  | 4.93 µM
CCCCCCOc1ccc(N)cc1 |  | 15.6 µM
CC(=O)Nc1ccc(O)cc1 |  | 5390 µM
CC(=O)OC(C)(C)C |  | 2820 µM
C#CC(C)(C)O |  | 39100 µM
CCOC(=O)c1ccccc1C(=O)OCC |  | 143 µM
O=Cc1ccc(O)cc1O |  | 95 µM
CCCOC(C)=O |  | 587 µM
CCCCCCCCCCCC#N |  | 2.37 µM
O=C(/C=C/C=C/c1ccc2c(c1)OCO2)N1CCCCC1 |  | 27.5 µM
CN(C)c1ccccc1 |  | 529 µM
C=CC(=O)OCCO |  | 41.4 µM
CCCCCCCCOc1ccccc1NC(C)=O |  | 1.71 µM
CCCCCCCCC(C)=O |  | 30.9 µM
CCSCCSCC |  | 401 µM
CC1CNCC(C)O1 (stereo unspecified) |  | 3360 µM
CC(C)SSC(C)C |  | 55.3 µM
O=[N+]([O-])c1ncccc1O |  | 1190 µM
O=[N+]([O-])c1ccccc1 |  | 967 µM
CC(N)CN (stereo unspecified) |  | 13600 µM
O=[N+]([O-])c1cc([N+](=O)[O-])c2ccccc2c1O |  | 14.5 µM

SMILES | outcome | Potency
CCCCCCCCC(=O)O |  | 657 µM
O=C1C[C@@H]2OCC=C3CN4CC[C@]56c7ccccc7N1[C@H]5[C@H]2[C@H]3C[C@H]46 |  | 1.11 µM
C#CC(C)(O)C(C)C (stereo unspecified) |  | 1830 µM
CCN(CC)CCCC(C)=O |  | 2140 µM
CCCCN |  | 3660 µM
CC#CCO |  | 144 µM
c1ccc2ncccc2c1 |  | 602 µM
CCCCc1ccc(N)cc1 |  | 68 µM
COc1c(O)c(Br)cc(C=O)c1[N+](=O)[O-] |  | 266 µM
C=C(C)C(=C)C |  | 84.1 µM
O=C(O)c1ccccc1 |  | 3360 µM
CNC(=O)O/N=C(\C)SC |  | 13 µM
Nc1ccc(Br)cn1 |  | 1020 µM
COC(=O)c1ccc(C#N)cc1 |  | 290 µM
Cc1cc(C)c(O)c(C)c1 |  | 95.4 µM
CC(=O)Nc1cccc(O)c1 |  | 7480 µM
Cc1cccc(Cl)n1 |  | 1820 µM
CC(N)Cc1ccccc1 (stereo unspecified) |  | 78.2 µM
CCC(=O)CC |  | 17900 µM
Cc1ccc(C)c(C)c1 |  | 64.2 µM
CC(O)CN (stereo unspecified) |  | 33600 µM
CCCCCCCCBr |  | 4.34 µM
Cc1nc(C)c(C)o1 |  | 4040 µM
COC(=O)c1ccc(C(=O)OC)c([N+](=O)[O-])c1 |  | 27.3 µM
O=C(Oc1ccccc1)c1ccccc1C(=O)Oc1ccccc1 |  | 0.251 µM
CC/C(C)=N/O |  | 9680 µM

SMILES | outcome | Potency
CCCCCCC(C)=O |  | 281 µM
CCCCCCCCCCCC(C)=O |  | 1.81 µM
c1ccc(CC2=NCCN2)cc1 |  | 1800 µM
CCCCCC(=O)O |  | 2760 µM
CC(C)=CC1C(C(=O)OCc2coc(Cc3ccccc3)c2)C1(C)C (stereo unspecified) |  | 0.0182 µM
C#CC(C)O (stereo unspecified) |  | 167 µM
CC(=O)C(C)CN(C)C (stereo unspecified) |  | 65.8 µM
O=P(Oc1c(Cl)cccc1Cl)(Oc1c(Cl)cccc1Cl)Oc1c(Cl)cccc1Cl | inactive; moa not determined either due to lack of toxicity at saturation or late test res | 
C#CC(O)(c1ccccc1)c1ccccc1 |  | 53.3 µM
CCN(CC)c1ccc(C=O)cc1 |  | 135 µM
Nc1ccccc1 |  | 1130 µM
CN(C)c1ccc(/C=C/C=O)cc1 |  | 36.7 µM
CCOC(=O)C(Cl)C(=O)OCC |  | 4.88 µM
OC1CCCCC1 |  | 7030 µM
Cc1cc(C)c(C#N)c(=O)[nH]1 |  | 1060 µM
CCCCCCCCN |  | 40.2 µM
N#Cc1cc(I)c(O)c(I)c1 |  | 18.3 µM
ClC(Cl)(Cl)C(Cl)(Cl)Cl |  | 6 µM
N#Cc1ccccc1C(F)(F)F |  | 247 µM
COC(=O)c1ccc(Cl)cc1[N+](=O)[O-] |  | 128 µM
CC1(C)CCC(C)(C)O1 |  | 1310 µM
CCC(C)=O |  | 44700 µM
CO | active; baseline narcosis | 
CCCCCCCC(C)=O |  | 107 µM
CC#N |  | 40100 µM
CCOCCOC(C)=O |  | 319 µM

SMILES | outcome | Potency
Oc1cc(Cl)c(Cl)c(Cl)c1Cl |  | 1.77 µM
COc1cc(Cl)c(Cl)cc1O |  | 23.2 µM
COC(=O)c1ccc(Cl)cc1 |  | 64 µM
O=[N+]([O-])c1ccccc1Oc1ccc(Cl)cc1 |  | 7.69 µM
C=CC(=O)OCC(C)O (stereo unspecified) |  | 26 µM
C=CCOC(=O)C(=C)C |  | 7.85 µM
CCc1ccccn1 |  | 3860 µM
CCCCCOCCCCC |  | 19.8 µM
ClCCCl |  | 1370 µM
ClCCCCCCl |  | 179 µM
C[CH2][Sn]([CH2]C)([CH2]C)[CH2]C |  | 0.0468 µM
CC(C)[C@H](C(=O)OC(C#N)c1cccc(Oc2ccccc2)c1)c1ccc(OC(F)F)cc1 (stereo partly specified) |  | 0.000421 µM
O=P(Oc1ccccc1)(Oc1ccccc1)Oc1ccccc1 |  | 2.66 µM
Nc1cccc(OCc2ccccc2)c1 |  | 45.9 µM
CCCC(C)C1(CC)C(=O)N=C(O)NC1=O (stereo unspecified) |  | 199 µM
NCCc1ccccn1 | inactive; moa not determined either due to lack of toxicity at saturation or late test res | 
CCN(CC)CCO |  | 15200 µM
ON=C1CCCCC1 |  | 1840 µM
C1C2CC3CC1CC(C2)C3 |  | 2.06 µM
OCCN(CCO)c1ccccc1 |  | 4060 µM
Cc1c[nH]c2ccccc12 |  | 67.4 µM
C=CCCCCCCC=C |  | 2.1 µM
c1cc(CCc2ccncc2)ccn1 |  | 820 µM
CCC(=O)O |  | 49900 µM
C1CCC(C2CCCCC2)CC1 | inactive; moa not determined either due to lack of toxicity at saturation or late test res | 
O=c1cc(-c2ccccc2)oc2ccccc12 |  | 15.7 µM

SMILES | outcome | Potency
O=C1C2CC3CC(C2)CC1C3 |  | 405 µM
CCC(C)c1cc([N+](=O)[O-])cc([N+](=O)[O-])c1O (stereo unspecified) |  | 2.23 µM
Cc1ncc[nH]1 |  | 3480 µM
CCCCC(C)=O |  | 4270 µM
CCCCCCCCOC(=O)c1cccc(C(=O)OCCCCCCCC)c1 | inactive; moa not determined either due to lack of toxicity at saturation or late test res | 
ClC(Cl)=C(Cl)C(Cl)=C(Cl)Cl |  | 0.345 µM
OCCOc1ccccc1 |  | 2490 µM
O=Cc1ccc(Cl)cc1Cl |  | 10.3 µM
Cc1ccccn1 |  | 9630 µM
O=C(NC1CCCCC1)OCCCl |  | 170 µM
CN(C)Cc1ccccc1 |  | 280 µM
Cl[C@@H]1CCCC[C@H]1Cl |  | 120 µM
CC1(C)[C@H]2CC[C@]1(C)C(=O)C2 |  | 112 µM
CCOC(=O)CCCCC(=O)OCC |  | 89.9 µM
CCNCCO |  | 16600 µM
CCOC(=O)CC(SP(=S)(OC)OC)C(=O)OCC (stereo unspecified) |  | 42.7 µM
Oc1ccccc1O |  | 83.7 µM
CNC(=O)Oc1cccc2c1OC(C)(C)C2 |  | 3.81 µM
NC(=O)c1ccc([N+](=O)[O-])cc1 |  | 801 µM
C=C(C)C(=O)OCCOCC |  | 175 µM
CCCCOC(=O)c1ccccc1C(=O)OCCCC |  | 3.59 µM
